Patent US6159705A, “Recombinant yeast cells for identifying receptor effectors” (Cadus Pharmaceutical Corporation, priority 1997, dated 2000)

How the values were obtained:
[1] = target: T1, S. cerevisiae pheromone receptor, Ste2p (Saccharomyces cerevisiae, UniProt D6VTK4); assay: Bar1 plate assay, agonist-induced Ste2p activation; format: cell-based
T1 sequence (D6VTK4 1-431): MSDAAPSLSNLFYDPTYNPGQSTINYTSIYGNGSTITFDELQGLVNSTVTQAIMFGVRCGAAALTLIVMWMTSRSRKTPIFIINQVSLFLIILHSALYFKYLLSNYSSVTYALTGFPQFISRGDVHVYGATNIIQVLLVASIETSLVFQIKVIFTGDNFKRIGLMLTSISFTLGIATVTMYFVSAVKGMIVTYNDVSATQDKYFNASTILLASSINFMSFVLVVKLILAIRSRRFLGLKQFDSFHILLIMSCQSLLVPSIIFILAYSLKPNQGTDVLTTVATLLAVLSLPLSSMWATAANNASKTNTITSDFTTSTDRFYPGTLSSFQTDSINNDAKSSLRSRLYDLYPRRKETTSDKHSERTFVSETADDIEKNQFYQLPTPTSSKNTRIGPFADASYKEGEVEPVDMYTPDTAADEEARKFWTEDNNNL
Experimental: The cells were removed from the culture by filtration.
Assay plates were prepared as follows. CY 579 cells were grown overnight in YEPD medium.
Since CY 579 lacks the BAR1 gene, it is super-sensitive to α-factor causing its growth to be arrested on the YEPD+α-factor plate. If the conditioned media applied to the lawn contains Bar1p activity, the α-factor in that region is destroyed, allowing growth of the CY 579 cells.
First, the gene encoding the S. cerevisiae Gα, GPA 1, was reintroduced into the genome of CY 8034 (MATa gpa1*1162 far1-1 ste2*1154 ste14::trp1::LYS2 fus1-HIS3 ura3 trp1 leu2 lys2 his3 ade2-1 met1) by transformation with an integrating plasmid encoding GPA1 (Cadus 3907), creating CY 11364. Next, the gene encoding the S. cerevisiae RGS protein, SST2, was disrupted in this strain to create CY 11645. Since Sst2p is involved in desensitization of the pheromone response pathway, its disruption results in increased signaling through the pathway (Reviewed by Sprague and Thorner in Molecular and Cellular Biology of the Yeast Saccharomyces. Vol. 2. 1992).
A high copy number Ste2 expression plasmid was constructed as follows. […]
(to OD600 0.4). […] A standard curve was also done with each experiment (described in Example 1) to quantitate the results.

[2] = target: T2, Ste2p (Saccharomyces cerevisiae, UniProt D6VTK4); assay: Pho5p acid phosphatase activity in strains with PHO4/STE12 chimerae (Ste2p activation); format: cell-based, S. cerevisiae
T2 construct: CY 1638 (MATa far1*1442 tbt1-1 FUS1-HIS3 trp1ura3 leu2 his3 suc2); endogenous in cells; host or cells: S. cerevisiae CY 11643 (MATa, pho3 and pho4 disrupted, from CY 1638 via CY 9788), carrying PHO4/STE12 chimera plasmids or Cadus 4129
T2 sequence (D6VTK4 1-431): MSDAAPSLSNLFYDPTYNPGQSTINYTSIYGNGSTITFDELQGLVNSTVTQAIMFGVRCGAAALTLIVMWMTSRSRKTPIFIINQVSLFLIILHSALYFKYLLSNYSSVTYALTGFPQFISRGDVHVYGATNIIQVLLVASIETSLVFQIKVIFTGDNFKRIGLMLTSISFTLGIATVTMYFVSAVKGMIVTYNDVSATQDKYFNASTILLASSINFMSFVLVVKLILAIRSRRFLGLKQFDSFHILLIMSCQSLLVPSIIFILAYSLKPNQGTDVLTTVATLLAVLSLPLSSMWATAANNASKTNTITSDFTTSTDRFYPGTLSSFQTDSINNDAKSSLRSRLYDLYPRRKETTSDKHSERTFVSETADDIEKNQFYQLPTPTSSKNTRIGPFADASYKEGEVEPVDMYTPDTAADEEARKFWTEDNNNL
Experimental: were used to amplify the KanMX2 gene. The amplification product was flanked by sequences corresponding to the 5' and 3' ends of the PHO4 gene. […] Transformants were selected on YEPD+geneticin (200 μg/ml) plates. […] Cells were patched onto YEPD or phosphate-depleted YEPD plates and allowed to grow overnight. For each plate, a mixture of 2 ml of molten 1% agarose in 50 mM NaAc pH 4.0, 700 μl H2 O, and 300 μl α-napthyl acid phosphate (50 mg/ml) was prepared and applied to the plate. Then 1 ml of D-dianisidine fast blue salt B (50 mg/ml in 50 mM NaAc pH 4.0) was poured onto the plate. The degree of color development is a measure of acid phosphatase activity produced by the patch of cells.
The PHO3 gene also encodes a secreted acid phosphatase, but its expression is not regulated by Pho4p. […] Since this gene is not essential and its presence would require that all assays be done under conditions of phosphate starvation, it was disrupted. Primers
were used to amplify sequences in the 3' untranslated region of the PHO3 gene. The amplification product which bears an EcoRI site ate its 5' end and an XbaI site at its 3' end was digested with EcoRI and XbaI and gel purified.
Cells were grown overnight in SD TRP- media. […] The cultures were split in half (2.5 ml each) and α-factor (25 μg) was added to one aliquot. After 2.5 hours at 30° C., the cells were collected by centrifugation, washed 3 times with H2 O, once with 50 mM NaAc pH 4.0, and resuspended in 250 μl 50 mM NaAc pH 4.0. […] 100 μl cells were added to 400 μl p-nitrophenyl phosphate (1 mg/ml in 50 mM NaAc pH 4.0). After 15 min at room temperature, 720 μl saturated NaCO3 was added to stop the reaction. The cells were removed by centrifugation and the optical density at 420 nm was determined.

[3] = test system: FPRL-1; conditions: uM concentrations; cited from earlier work
[4] = test system: human C5a receptor; assay: Autocrine activation, fus1-lacZ beta-galactosidase; format: cell-based; conditions: R+L+ cells
Experimental: CY878 (MATα tbt1-1 fus1-HIS3 caN1 ste14::trp1::LYS2 ste3* 1156 gpal(41)-Gαi2) was used as the starting strain for these experiments. This strain is a trp1 derivative of CY455. The transformants for this experiment contained CADUS 1584 (pRS424-fus1-lacZ) in addition to the receptor and ligand plasmids. Four strains were grown overnight in SD LEU URA TRP pH6.8 with 50 mM PIPES to an OD600 of less than 0.8. Assay of β-galactosidase activity can be done useing methods known in the art (Guarente 1983).

[5] = test system: induced HL60 cells; assay: Competition with radiolabeled C5a for binding on induced HL60 cells; conditions: C5a expressed in yeast
[6] = test system: human C5a receptor; assay: Autocrine activation of pheromone pathway, growth read-out (fus1-HIS3); format: cell-based
From the text: The strain used for this analysis, CY455 (MATα tbt1-1 ura3 leu2 trp1 his3 fus1-HIS3 can1 ste14::TRP1 ste3* 1156) contains the following significant modifications. A pheromone inducible HIS3 gene, fus1-HIS3, is integrated at the Fus1 locus. A hybrid gene containing sequence encoding the first 41 amino acids of GPA1 (the yeast Gα subunit) fused to sequence encoding human Gαi2a (minus codons for the N-terminal 33 amino acids) replaces GPA1 at its normal chromosomal location. The yeast STE14 gene is disrupted to lower the basal level of signaling through the pheromone response pathway. The yeast a-factor receptor gene, STE3, is deleted. The last two modifications are probably not essential, but appear to improve the signal-to-noise ratio.
CY455 (MATα tbt1-1 ura3 leu2 trp1 his3 fus1-HIS3 can1 ste14::TRP1 ste3 * 1156) was transformed with the following plasmids:
Cadus 1303+Cadus 1297=Receptor^+ Ligand^+ =(R+L+)
Three colonies were picked from each transformation and grown overnight in media lacking leucine and uracil, at pH 6.8 with 25 mM PIPES (LEU URA pH6.8 with 25 mM PIPES). This media was made by adding 0.45 ml of sterile 1 M KOH and 2.5 ml of sterile 1M PIPES pH 6.8 to 100 ml of standard SD LEU- URA- media. […] The optical density at 600 nm of a 1/20 dilution of these cultures was determined and the cultures were diluted into 25 mM PIPES pH 6.8 to a final OD600 of 0.2. […]

[7] = target: C5a receptor; conditions: data derived from mammalian cells; read-out: binding constant of C5a to its receptor; cited from earlier work

## α-factor
[1]; cells expressing Ste2p (CY 11728), α-factor 10 μg, 2 h, 30° C.
  increase in Bar1p activity: greater than 8 fold
[1]; cells lacking the Ste2p expression plasmid (CY 11727)
  Bar1p activity in conditioned media: Little or no Bar1p activity was detected
[2]; all strains expressing Pho4/Ste12 chimerae
  acid phosphatase activity inducible by pheromone: pheromone-inducible acid phosphatase activity was observed
[2]; cells expressing only the Pho4p DNA binding domain (CY11643+Cadus 4129)
  change of acid phosphatase activity on exposure to α-factor: not increased by exposure to α-factor
[2]; other chimerae with very low constitutive activity
  Pho5p induction ratio: 5-10 fold
[2]; two chimerae with high constitutive activity (printed Cadus 4184 and Cadus 4185)
  Pho5p induction ratio: 2-4 fold

## CSCC[C@H](NC=O)C(=O)N[C@@H](CC(C)C)C(=O)N[C@@H](Cc1ccccc1)C(=O)O [f-Met-Leu-Phe]
[3]
  binding to fibroblasts transfected with FPRL-1 cDNA: weak binding

B1: C5a: Human C5a is a 74 amino acid polypeptide that derives from the fifth component of complement (protein, UniProt P01031 678-751, looked up)
C5a anaphylatoxin: TLQKKIEEIAAKYKHSVVKKCCYDGACVNNDETCEQRAARISLGPRCIKAFTECCVVASQLRANISHKDMQLGR
modifications: C5a anaphylatoxin
notes: Human C5a is a 74 amino acid polypeptide that derives from the fifth component of complement
[4]
  autocrine stimulation and β-galactosidase activity: results in autocrine stimulation and β-galactosidase activity
[5]
  competition for binding with radiolabeled C5a: shown to compete for binding
[6]; R+L+ strain, C5a expressed by the cell
  growth on selective plates lacking histidine: show growth on the selective plates
[6]; highest concentration tested
  aminotriazole concentration up to which the R+L+ strain will grow: up to 5 mM
[7]
  Kd: 1 nM
